“Also recorded” adds a separate entry of the source. Like-named read-outs stand apart in the source and are kept apart here.
Assays:
[1] = biological target: T1, CYP2C19 (Homo sapiens, UniProt P33261); experiment: CYP2C19 inhibition in human liver microsomes; type: in vitro ADME; conditions: ultrapooled human liver microsomes 0.2 mg/mL, 100 μM [S]-mephenytoin, β-amanitin 0.1–100 μM, pH 7.4, 37 °C, 15 min, LC-MS/MS, n = 3, read-out: IC50, CYP2C19 [S]-mephenytoin 4′-hydroxylase
T1 construct: from tissue; host or cells: ultrapooled human liver microsomes
Procedure: β-amanitin inhibition (IC50 values) of CYP1A2, CYP2A6, CYP2B6, CYP2C8, CYP2C9, CYP2C19, CYP2D6, and CYP3A4 enzyme activities in HLMs were evaluated using LC-MS/MS and CYP substrates as previously described. Each incubation mixture was made up to a volume of 100 μL including HLMs (0.2 mg/mL), 50 mM potassium phosphate buffer (pH 7.4), 1.0 mM NADPH, 10 mM magnesium chloride, various concentrations of β-amanitin (0.1–100 μM), a cocktail of seven CYP probe substrates (50 μM phenacetin for CYP1A2, 2.5 μM coumarin for CYP2A6, 2 μM amodiaquine for CYP2C8, 10 μM diclofenac for CYP2C9, 100 μM [S]-mephenytoin for CYP2C19, 5 μM bufuralol for CYP2D6, and 2.5 μM midazolam for CYP3A4 in acetonitrile), or 50 μM bupropion for CYP2B6. The reactions were initiated with NADPH followed by incubation in a shaking water bath at 37 °C for 15 min with or without 30 min preincubation with NADPH. Reactions were stopped with 50 μL of ice-cold methanol containing ^13C2, ^15N-acetaminophen and d9-1′-hydroxybufuralol (ISs). Incubation mixtures were centrifuged at 13,000× g for 8 min at 4 °C. An aliquot (5 μL) of the supernatant from the reaction mixture was analyzed by the previous LC-MS/MS method.

[2] = oral administration of dried powder of Amanita exitialis 60 mg/kg; cited from earlier work
Procedure: In addition, bile drainage caused more than a 70% reduction in plasma concentration of α- and β-amanitin and reduced hepatic toxicity following the oral administration of dried powder of Amanita exitialis (60 mg/kg). […] However, the toxicokinetics and tissue distribution of β-amanitin (Figure 1) upon ex ...

[3] = biological target: T2, OAT3 (Homo sapiens, UniProt Q8TCC7); experiment: Uptake of amanitins into HEK293-OAT3 cells; type: in vitro ADME; set-up: expressed in transfected cells; host or cells: HEK293; conditions: 50 μM amanitin, 5 min, 37 °C, HBSS, 20 min preincubation, with and without probenecid, LC-HRMS, n = 3
T2 sequence (Q8TCC7 1-542): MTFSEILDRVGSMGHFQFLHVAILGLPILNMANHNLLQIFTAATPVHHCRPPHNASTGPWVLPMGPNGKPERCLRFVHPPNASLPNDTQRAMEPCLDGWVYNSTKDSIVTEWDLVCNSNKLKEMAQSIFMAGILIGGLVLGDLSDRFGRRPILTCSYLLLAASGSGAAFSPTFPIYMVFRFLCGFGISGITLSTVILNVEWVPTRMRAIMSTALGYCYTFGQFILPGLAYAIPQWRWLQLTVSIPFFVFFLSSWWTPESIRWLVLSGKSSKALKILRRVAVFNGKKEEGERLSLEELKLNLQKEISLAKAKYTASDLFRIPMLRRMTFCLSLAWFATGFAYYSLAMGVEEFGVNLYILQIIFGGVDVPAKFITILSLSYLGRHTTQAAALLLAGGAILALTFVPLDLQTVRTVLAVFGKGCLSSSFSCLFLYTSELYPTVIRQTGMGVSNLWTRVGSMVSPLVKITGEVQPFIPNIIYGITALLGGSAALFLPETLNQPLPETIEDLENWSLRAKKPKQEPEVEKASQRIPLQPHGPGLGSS
Procedure: HEK293 cells overexpressing OCT2, MATE2-K, OAT1, OAT3, OATP1B1, and OATP1B3 transporters and HEK293-control cells were maintained in a humidified atmosphere of 5% CO2 at 37 °C in DMEM supplemented with 10% FBS and 5 mM non-essential amino acids. In the case of HEK293-OATP1B1, -OATP1B3, and MATE2-K cells, 2 mM sodium butyrate was added to the culture medium to enhance transport activity. Cells were seeded at 2 × 10^5 cells/well in poly-D-lysine-coated 24-well plates. After 24 h, the growth medium was discarded, and attached cells were washed with HBSS and preincubated for 20 min in HBSS at 37 °C. Stock solutions of α- and β-amanitin and representative inhibitors of transporters were diluted in HBSS to make the final concentration: cimetidine 1 mM (for OCT2), cimetidine 100 μM (for MATE2-K), probenecid 100 μM (for OAT1 and OAT3), and rifampin 100 μM (for OATP1B1 and OATP1B3). Uptake of 50 μM α- and β-amanitin was measured in the absence and presence of representative inhibitors for 5 min at 37 °C. Plates were placed immediately on ice, and cells were then washed twice with 1 mL of ice-cold HBSS. Residual HBSS was removed thoroughly from the plates. Subsequently, 150 μL of 80% methanol containing IS was added to each sample well, and the cell plates were shaken gently for 20 min at 4 °C. The remaining steps were the same as described for plasma sample preparation.

[4] = tested on: humans; conditions: oral administration; cited from earlier work
Procedure: Amanita phalloides poisoning can cause acute hepatitis, leading to the rapid development of liver insufficiency and ultimately coma and death. Nephrotoxicity is reported less frequently. Yilmaz et al. reported that an oral intake of approximately 50 g of fresh Amanita phalloides, representing a dose of 0.32 mg/kg of amatoxins, can be lethal. A few reports are available that describe the toxicokinetics of α- and β-amanitin after the oral administration of toadstool extract to beagle dogs and rats. In addition, the toxicokinetics of α-amanitin were investi ... || The Amanitaceae family is responsible for nearly 95% of all fatal mushroom poisonings, and amatoxins are the primary threats to human life. The content of amatoxins varies by Amanita species, but α- and β-amanitin are the most abundant substances. […] Among amatoxins, α-amanitin i ...

T1 sequence (P33261 whole entry): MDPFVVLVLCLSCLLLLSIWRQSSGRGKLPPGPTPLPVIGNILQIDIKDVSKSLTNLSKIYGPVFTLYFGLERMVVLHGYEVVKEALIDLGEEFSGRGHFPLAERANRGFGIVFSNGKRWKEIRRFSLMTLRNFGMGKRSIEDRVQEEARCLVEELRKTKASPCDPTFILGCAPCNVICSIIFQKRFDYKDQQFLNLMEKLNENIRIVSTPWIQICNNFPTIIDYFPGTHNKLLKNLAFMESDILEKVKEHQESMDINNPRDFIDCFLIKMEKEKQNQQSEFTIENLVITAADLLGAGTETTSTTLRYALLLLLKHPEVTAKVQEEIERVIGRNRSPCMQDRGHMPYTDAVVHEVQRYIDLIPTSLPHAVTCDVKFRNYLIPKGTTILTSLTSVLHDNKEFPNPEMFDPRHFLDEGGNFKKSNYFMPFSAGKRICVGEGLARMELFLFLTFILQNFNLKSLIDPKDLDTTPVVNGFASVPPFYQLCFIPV

Row | Molecule | IC50 ([1]; with 30 min NADPH preincubation) | IC50 ([1]; without NADPH preincubation) | Reduction in plasma concentration caused by bile drainage [2] | Uptake into HEK293-OAT3 cells compared with HEK293 control cells (transport substrate) [3] | Lethal dose [4]
1 | CC[C@H](C)[C@@H]1NC(=O)CNC(=O)[C@@H]2Cc3c([nH]c4cc(O)ccc34)[S@+]([O-])C[C@H](NC(=O)CNC1=O)C(=O)N[C@@H](CC(=O)O)C(=O)N1C[C@H](O)C[C@H]1C(=O)N[C@@H]([C@@H](C)[C@@H](O)CO)C(=O)N2 [β-amanitin] | > 100 µM | > 100 µM | > 70% | significantly greater uptake; also recorded: substrate | –
2 | α-amanitin [reference compound] | – | – | > 70% | but not α-amanitin, showed significantly greater uptake | 0.1 mg/kg

From article PMC9030691, “Toxicokinetics of β-Amanitin in Mice and In Vitro Drug–Drug Interaction Potential” (Pharmaceutics, 2022)
